Read-outs that look alike come from different tables or passages of the source. No end group written: not given here.
Legend:
B. longum [1] = experiment: Antibiotic sensitivity by the disc assay method, B. longum cells; assay type: cell-based, Bifidobacterium longum ATCC 15707; settings: after approximately 6 days of continuous culture, tolerance increased with time
Experimental: (§1) FIG. 1 : Tolerance to kanamycin of L. diacetylactis and B. longum cells produced during continuous immobilized cell fermentation in reactors R1 and R2 for different culture times. J and R indicate the culture day and reactor, respectively. The antibiotic sensitivity was tested by the disc assay method.
(§2) Bifidobacterium longum ATCC 15707 and Lactococcus lactis ssp lactis biovar diacetylactis were immobilized separately in κ-carrageenan/locust bean gum gel beads with a 2% (v/v) inoculum, as described previously (Lamboley et al. 1997). Beads with diameters in the range 1–2 mm were selected by wet sieving and used for fermentation experiments. This mixed gel is a good matrix entrapment for temperature-sensitive cells, with good mechanical properties for long-term stability during continuous culture with immobilized cells (Lamboley et al., 1997; 1999; 2001). The κ-carrageenan/locust bean gum gel is stabilized by potassium and other cations present in the culture broth. […] Other gel compositions can also be used for the immobilization matrix, such as polysaccharides and proteins, with other chemical products.
(§3) Reactor R1 was inoculated with 15% (v/v) of each of the two types of gel beads containing a pure culture of the two strains which have been pre-colonized during a 16 h pH-controlled batch culture. […] The reactors in series were continuously fed with MRS medium (de Man et al., 1960) supplemented with KCl 0.15 M to ensure bead mechanical stability. Medium feed flow rate was set at 240 ml/h during the 17-day culture and pH was controlled at 6.0 by addition of NH4OH 6N. The bioreactor was held at temperatures varying between 32–37° C. and purged with CO2 to maintain anaerobic conditions, with mixing set at 120 rpm.
(§4) FIG. 1 and Table 1 illustrate the effect of different antibiotics on the increase of L. diacetylactis and B. longum tolerance as a function of culture time.

L. diacetylactis = experiment: Antibiotic tolerance by the disc assay method, L. diacetylactis cells; assay type: cell-based, Lactococcus lactis ssp lactis biovar diacetylactis; settings: after approximately 6 days of continuous culture, tolerance increased with time
Experimental: as §1, §2, §3, §4

B. longum [2] = settings: 30000 ppm H2O2, 1 min at 37° C.
Experimental: FIG. 4: B. longum survival to hydrogen peroxyde (H2O2) of control (free-cell batch culture) and experimental (continuous two-stage immobilized cells fermentation) cultures. […] A bacterial sample (1 ml) was incubated with 9 ml H2O2 solution at final concentrations of 0, 2000, 10000, 20000, or 30000 ppm H2O2, for 1 min at 37° C. After incubation, 0.1 ml of test sample was added to 9.9 ml catalase 2% to stop the reaction, and cell survival was determined by the pour plate method.
The resistance of cells in the effluents from R1 and R2 to different stresses was tested as a function of fermentation time and compared to a control treatment. Control cells were produced during free-cell batch fermentation in MRS medium inoculated at 2% and incubated for 18 h at 37° C. with no pH control.

Row | Molecule | Tolerance of cells produced with immobilized cell technology compared to the control (B. longum [1]) | Tolerance of cells produced with immobilized cell technology compared to the control (L. diacetylactis) | Cell survival (B. longum [2]; B. longum cells produced with ICT) [%] | Cell survival (B. longum [2]; B. longum control cells (free-cell batch culture)) [%]
1 | O=C(N[C@H](CO)[C@H](O)c1ccc([N+](=O)[O-])cc1)C(Cl)Cl [Chloramphenicol] | increased tolerance | more tolerant |  | 
2 | Nisin Z (ITSISLCTPGCKTGALMGCNMKTATCNCSIHVSK; also: lantibiotic nisin-Z: thioether rings and dehydro residues not placed; UniProt P29559 24-57, looked up) [bacteriocin tested among the antibiotics in the disc assay] | increased tolerance | more tolerant |  | 
3 | OO [H2O2, hydrogen peroxide] |  |  | 0.1 | 0.003
4 | CN[C@H](CC(C)C)C(=O)N[C@H]1C(=O)N[C@@H](CC(N)=O)C(=O)N[C@H]2C(=O)N[C@H]3C(=O)N[C@H](C(=O)N[C@H](C(=O)O)c4cc(O)cc(O)c4-c4cc3ccc4O)[C@H](O)c3ccc(c(Cl)c3)Oc3cc2cc(c3O[C@@H]2O[C@H](CO)[C@@H](O)[C@H](O)[C@H]2O[C@H]2C[C@](C)(N)[C@H](O)[C@H](C)O2)Oc2ccc(cc2Cl)[C@H]1O [Vancomycin] | increased tolerance | more tolerant |  | 
5 | CC[C@H]1OC(=O)[C@H](C)[C@@H](O[C@H]2C[C@@](C)(OC)[C@@H](O)[C@H](C)O2)[C@H](C)[C@@H](O[C@@H]2O[C@H](C)C[C@H](N(C)C)[C@H]2O)[C@](C)(O)C[C@@H](C)C(=O)[C@H](C)[C@@H](O)[C@]1(C)O [Erythromycin] | increased tolerance |  |  | 
6 | CN(C)[C@@H]1C(=O)C(C(N)=O)=C(O)[C@@]2(O)C(=O)C3=C(O)c4c(O)cccc4[C@@](C)(O)[C@H]3C[C@@H]12 [tetracyclin] | increased tolerance | more tolerant |  | 
